In US9580430B2, “9H-pyrimido[4,5-B]indoles and related analogs as BET bromodomain inhibitors” (THE REGENTS OF THE UNIVERSITY OF MICHIGAN, priority 2014, dated 2017) one finds IC50 data, which are given here for 17 compounds.

In assay [1] the test system is MOLM-13. Nature of the assay: Cell growth inhibition, MOLM-13 leukemia cells (CellTiter-Glo). Type of assay: cell-based. As to conditions: Homo sapiens, MOLM-13, 96 h; 4 days; read-out: IC50 (nM) MOLM-13 Cell Line (CellTiter-Glo assay). The protocol: Cell growth inhibitory activity of representative Compounds of the Disclosure was determined using CellTiter-Glo® Luminescent Cell Viability Assay. […] Cell viability was determined using the CellTiter-Glo® Luminescent Cell Viability Assay Kit (Promega, Madison, Wis.) according to the manufacture's instruction. Briefly, a volume of CellTiter-Glo® Reagent equal to the volume of cell culture medium was added to each well, and then the plates were incubated at room temperature for 10-20 minutes. The luminescent signal was measured using a Tecan Infinite M1000 multimode microplate reader (Tecan, Morrisville, N.C.). The half maximal inhibitory concentration (IC50) was calculated using the GraphPad Prism 5 software (GraphPad Software, La Jolla, Calif.).

In assay [2] the test system is MDA-MB-436. Nature of the assay: Cell growth inhibition, MDA-MB-436 breast cancer cells (WST-8). Type of assay: cell-based. As to conditions: Homo sapiens, MDA-MB-436, 96 h; 4 days; read-out: IC50 (nM) MDA-MB-436 Cell Line (WST assay). Summed up:
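IC50 was computed from WST-8-based cell counting in MDA-MB-436 cells, with absorbance read at 450 nm.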

The target in assay [3] is T1, recombinant BRD4 BD2 (Homo sapiens, UniProt O60885).
T1 construct: for recombinant BRD4 BD1 and BRD4 BD2 proteins
The assay can be described thus: Competitive fluorescence-polarization (FP) binding assay, BRD4 BD2. Further: probe 1.5 nM. As to conditions: competitive FP assay; protein 6 nM, probe […]; read-out: IC50 (nM) BRD4 BD2. Summed up:
(§1)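 Buffer: 100 mM potassium phosphate, pH 6.5, 0.01% Triton X-100; compounds added in buffer with 40% ethylene glycol to preformed complex of fluorescent probe with BRD4 BD1 (10 nM final) or BD2 (6 nM final). After 30 min at room temperature, polarization read. IC50 from nonlinear fits of competition curves, with Ki.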

In assay [4] the target is T2, recombinant BRD4 BD1 (Homo sapiens, UniProt O60885).
T2 construct: for recombinant BRD4 BD1 and BRD4 BD2 proteins
Nature of the assay: Competitive fluorescence-polarization (FP) binding assay, BRD4 BD1. Further: probe 1.5 nM. As to conditions: competitive FP assay; protein 10 nM, probe […]; read-out: IC50 (nM) BRD4 BD1. Summed up:
as §1

With `COc1cc2c(cc1-c1c(C)noc1C)[nH]c1nc(C)nc(Nc3[nH]ncc3C(C)C)c12` [Cpd. No. 32, 7-(3,5-dimethylisoxazol-4-yl)-N-(4-isopropyl-1H-pyrazol-5-yl)-6-methoxy-2-methyl-9H-pyrimido[4,5-b]indol-4-amine], the IC50 in assay [1] is 40.9 nM; in assay [2] it was 155 nM; in assay [3], 39.4 nM; in assay [4], 26.5 nM.
As to `COc1cc2c(cc1-c1c(C)noc1C)[nH]c1nc(C)nc(Nc3scnc3C(C)(C)C)c12` [Cpd. No. 33, 4-(tert-butyl)-N-(7-(3,5-dimethylisoxazol-4-yl)-6-methoxy-2-methyl-9H-pyrimido[4,5-b]indol-4-yl)thiazol-5-amine], the IC50 in assay [1] was 2420 nM; in assay [2], 303 nM; in assay [3] it was 21.5 nM; in assay [4], 24.5 nM.
In the same order, the values of `COc1cc2c(cc1-c1c(C)noc1C)[nH]c1nc(C)nc(Nc3cn(C)nc3C)c12` [Cpd. No. 34, N-(1,3-dimethyl-1H-pyrazol-4-yl)-7-(3,5-dimethylisoxazol-4-yl)-6-methoxy-2-methyl-9H-pyrimido[4,5-b]indol-4-amine] are 32.7 nM, 97.6 nM, 28.7 nM and 30.2 nM.
In the same order, the values of `COc1cc2c(cc1-c1c(C)noc1C)[nH]c1nc(C)nc(Nc3c(C)nn(C)c3C)c12` [Cpd. No. 35, 7-(3,5-dimethylisoxazol-4-yl)-6-methoxy-2-methyl-N-(1,3,5-trimethyl-1H-pyrazol-4-yl)-9H-pyrimido[4,5-b]indol-4-amine] are 38.9 nM, 88.9 nM, 42.9 nM and 20.4 nM.
For `COc1cc2c(cc1-c1c(C)noc1C)[nH]c1nc(C)nc(Nc3c(C)nn(C(C)C)c3C)c12` [Cpd. No. 36, 7-(3,5-dimethylisoxazol-4-yl)-N-(1-isopropyl-3,5-dimethyl-1H-pyrazol-4-yl)-6-methoxy-2-methyl-9H-pyrimido[4,5-b]indol-4-amine], the IC50 is 103 nM in assay [1], 236 nM in assay [2], 92.6 nM in assay [3] and 68.5 nM in assay [4].
In the same order, the values of `COc1cc2c(cc1-c1c(C)noc1C)[nH]c1nc(C)nc(Nc3c(C)cnn3C(C)C)c12` [Cpd. No. 37, 7-(3,5-dimethylisoxazol-4-yl)-N-(1-isopropyl-4-methyl-1H-pyrazol-5-yl)-6-methoxy-2-methyl-9H-pyrimido[4,5-b]indol-4-amine] are 54.1 nM, 56.2 nM, 6.5 nM and 12.1 nM.
For `COc1cc2c(cc1-c1c(C)noc1C)[nH]c1nc(C)nc(Nc3n[nH]c4ccccc34)c12` [Cpd. No. 58, 7-(3,5-Dimethylisoxazol-4-yl)-N-(1H-indazol-3-yl)-6-methoxy-2-methyl-9H-pyrimido[4,5-b]indol-4-amine] the same measures were 32 nM, 54.6 nM, 22.6 nM and 11 nM.
Regarding `COc1cc2c(cc1-c1c(C)noc1C)[nH]c1nc(C)nc(Nc3nn(C)c4cc(F)ccc34)c12` [Cpd. No. 59, 7-(3,5-Dimethylisoxazol-4-yl)-N-(6-fluoro-1-methyl-1H-indazol-3-yl)-6-methoxy-2-methyl-9H-pyrimido[4,5-b]indol-4-amine], the IC50 in assay [1] came out at 401 nM; in assay [2] it was 535 nM; in assay [3], 174 nM; in assay [4], 90.5 nM.
Take `COc1cc2c(cc1-c1c(C)noc1C)[nH]c1nc(C)nc(Nc3cc(C(C)C)nn3C)c12` [Cpd. No. 65, 7-(3,5-Dimethylisoxazol-4-yl)-N-(3-isopropyl-1-methyl-1H-pyrazol-5-yl)-6-methoxy-2-methyl-9H-pyrimido[4,5-b]indol-4-amine]: the IC50 worked out at 11.7 nM in assay [1], 26 nM in assay [2], 4.1 nM in assay [3] and 6.1 nM in assay [4].
With `COc1cc2c(cc1-c1c(C)noc1C)[nH]c1nc(C)nc(Nc3c(C)cnn3C)c12` [Cpd. No. 76, N-(1,4-dimethyl-1H-pyrazol-5-yl)-7-(3,5-dimethylisoxazol-4-yl)-6-methoxy-2-methyl-9H-pyrimido[4,5-b]indol-4-amine], the IC50 turned out to be 117 nM in assay [1], 156 nM in assay [2], 23.7 nM in assay [3] and 29.4 nM in assay [4].
For `COc1cc2c(cc1-c1c(C)noc1C)[nH]c1nc(C)nc(Nc3nn(C)cc3C)c12` [Cpd. No. 77, N-(1,4-dimethyl-1H-pyrazol-3-yl)-7-(3,5-dimethylisoxazol-4-yl)-6-methoxy-2-methyl-9H-pyrimido[4,5-b]indol-4-amine] the same measures were 242 nM, 351 nM, 168 nM and 64.4 nM.
Consider `COc1cc2c(cc1-c1c(C)noc1C)[nH]c1nc(C)nc(Nc3c(C(C)C)cnn3C)c12` [Cpd. No. 79, 7-(3,5-dimethylisoxazol-4-yl)-N-(4-isopropyl-1-methyl-1H-pyrazol-5-yl)-6-methoxy-2-methyl-9H-pyrimido[4,5-b]indol-4-amine], for which the IC50 in assay [1] turned out to be 43.9 nM; in assay [2], 121 nM; in assay [3], 1.8 nM; in assay [4] it was 9.3 nM.
For `COc1cc2c(cc1-c1c(C)noc1C)[nH]c1nc(C)nc(Nc3c(C)c(C)nn3C(C)C)c12` [Cpd. No. 81, 7-(3,5-dimethylisoxazol-4-yl)-N-(1-isopropyl-3,4-dimethyl-1H-pyrazol-5-yl)-6-methoxy-2-methyl-9H-pyrimido[4,5-b]indol-4-amine] the same measures were 22.9 nM, 67 nM, 19.6 nM and 5.1 nM.
With `COc1cc2c(cc1-c1c(C)noc1C)[nH]c1nc(C)nc(Nc3cccc(Cl)c3)c12` [Cpd. No. 97, N-(3-chlorophenyl)-7-(3,5-dimethylisoxazol-4-yl)-6-methoxy-2-methyl-9H-pyrimido[4,5-b]indol-4-amine], the IC50 in assay [1] worked out at 43 nM; in assay [2] it was 180 nM; in assay [3], 8 nM; in assay [4], 34 nM.
In the same order, the values of `COc1cc2c(cc1-c1c(C)noc1C)[nH]c1nc(C)nc(Nc3c(-c4ccccc4)noc3C)c12` [Cpd. No. 98, N-(7-(3,5-dimethylisoxazol-4-yl)-6-methoxy-2-methyl-9H-pyrimido[4,5-b]indol-4-yl)-5-methyl-3-phenylisoxazol-4-amine] are 171 nM, 380 nM, 13 nM and 76 nM.
For `COc1cc2c(cc1-c1c(C)noc1C)[nH]c1nc(C)nc(Nc3cnc4ccccn34)c12` [Cpd. No. 99, 7-(3,5-dimethylisoxazol-4-yl)-N-(imidazo[1,2-a]pyridin-3-yl)-6-methoxy-2-methyl-9H-pyrimido[4,5-b]indol-4-amine] the same measures were 206 nM, 307 nM, 87 nM and 47 nM.
For `COc1cc2c(cc1-c1c(C)noc1C)[nH]c1nc(C)nc(Nc3ccc(OC)c4ccccc34)c12` [Cpd. No. 100, 7-(3,5-dimethylisoxazol-4-yl)-6-methoxy-N-(4-methoxynaphthalen-1-yl)-2-methyl-9H-pyrimido[4,5-b]indol-4-amine] the same measures were 147 nM, 235 nM, 89 nM and 99 nM.
